Data on 2 molecules can be found in US20160136192A1, “METHODS AND COMPOSITIONS FOR ENHANCING COGNITIVE PERFORMANCE” (ABBOTT LABORATORIES, priority 2013, published 2016).

This experiment deals with NMDAR dependant hippocampal LTP. Description: NMDAR dependant LTP (fEPSP amplitude) induced by weak tetanus, recorded on hippocampal brain slices in vitro with MEA. Type of experiment: cell-based, mice. Conditions: mouse hippocampal slices, 10 stimulations at 100 Hz for 0.1 seconds.

With `C[N+](C)(C)CCO.[Cl-]` [choline chloride, Choline chloride], the “effect on NMDAR dependant hippocampal LTP induced by weak tetanic stimulation” value (“effect” for short) (10 micromolar (μM)) is “did not produce any effect”; the “effect” value (15 micromolar) is given as “did not produce any effect”; the “effect” value (20 micromolar (μM)) is given as “did not produce any effect”; the “effect” value (30 micromolar (μM)) was “significantly enhanced”; the “effect” value (40 micromolar) was “significantly enhanced”; the “effect” value (50 micromolar) was “significantly enhanced”.
Take `CCCCCCCC/C=C\CCCCCCCC(=O)OCC` [oleic acid (ethyl ester), Oleic acid ethyl ester]: the “effect” value is recorded as “did not produce any effect” (10 micromolar (μM)), “significantly enhanced” (20 micromolar (μM)) and “significantly enhanced” (30 micromolar (μM)).
